According to PMC7051831 (ACS chemical biology, 2019):
Entries after “also recorded” stand apart in the source; their conditions may differ. Like-named read-outs stand apart in the source and are kept apart here.

What was measured:
interleukin-1β (IL-1β) [1] = target: T1, interleukin-1β (IL-1β) (Homo sapiens, UniProt P01584); assay: ethanol titration under standard bulk conditions compared with RM titration
interleukin-1β (IL-1β) [2] = target: T1, interleukin-1β (IL-1β); type: binding; conditions: IL-1β in LDAO/10MAG reverse micelles; for extent of binding across the protein surface (in words): Figure 1
[3] = cited from earlier work
[4] = alkane/water partitioning by simple NMR method; type: physicochemical; conditions: alkane (pentane)/water partitioning

T1 sequence (P01584 117-269): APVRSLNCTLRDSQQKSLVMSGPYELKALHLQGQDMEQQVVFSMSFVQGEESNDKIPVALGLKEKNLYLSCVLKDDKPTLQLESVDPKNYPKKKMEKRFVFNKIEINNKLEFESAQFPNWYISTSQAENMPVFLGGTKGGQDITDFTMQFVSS

Row | SMILES | binding affinity (in words) (interleukin-1β (IL-1β) [2]) | extent of binding across the protein surface (in words) (interleukin-1β (IL-1β) [2]) | further results
1 | CCO [ethanol] | more specific and with a relatively higher affinity | binding is limited to fewer sites | binding in RMs compared with bulk (in words) (interleukin-1β (IL-1β) [1]): binds slightly more weakly to the protein in RMs than in bulk; binding affinity (in words) (interleukin-1β (IL-1β) [2]; listed as Ethanol): relatively high binding affinity within a narrow Kd range
2 | CCCCCCCCCCCC[N+](C)(C)[O-] [LDAO] |  |  | pKa [3]: ~ 5
3 | CN [methylammonium] |  | bind at a larger number of sites | 
4 | c1cncnc1 [pyrimidine] |  | bind at a larger number of sites | fraction of molecules retained in the RM [4]: over one-third
5 | CC#N [acetonitrile] | more diffuse and weak | relatively sparse binding across the protein surface | fraction of molecules retained in the RM [4]: over one-third; binding affinity (in words) (interleukin-1β (IL-1β) [2]; listed as Acetonitrile): relatively weak binding affinities
6 | CNC(C)=O [N-methylacetamide] | relatively weak binding affinities; also recorded: more diffuse and weak | relatively sparse binding across the protein surface | 
7 | c1c[nH]cn1 [imidazole] | more specific and with a relatively higher affinity | bind at a larger number of sites | 
